From US20250034216A1, “STEREOSELECTIVE COVALENT LIGANDS FOR ONCOGENIC AND IMMUNOLOGICAL PROTEINS” (The Scripps Research Institute, priority 2021, published 2025) come the findings set out here.

SMILES strings stand for the structures.

Experiment in all cases: IA-DTB cysteine engagement
Assay type in all cases: binding

Assay [1] concerns the target T1, ANGEL1_C27 (Homo sapiens, UniProt Q9UNK9).
T1 construct: endogenous in cells; host or cells: 22Rv1
T1 sequence (Q9UNK9 1-670): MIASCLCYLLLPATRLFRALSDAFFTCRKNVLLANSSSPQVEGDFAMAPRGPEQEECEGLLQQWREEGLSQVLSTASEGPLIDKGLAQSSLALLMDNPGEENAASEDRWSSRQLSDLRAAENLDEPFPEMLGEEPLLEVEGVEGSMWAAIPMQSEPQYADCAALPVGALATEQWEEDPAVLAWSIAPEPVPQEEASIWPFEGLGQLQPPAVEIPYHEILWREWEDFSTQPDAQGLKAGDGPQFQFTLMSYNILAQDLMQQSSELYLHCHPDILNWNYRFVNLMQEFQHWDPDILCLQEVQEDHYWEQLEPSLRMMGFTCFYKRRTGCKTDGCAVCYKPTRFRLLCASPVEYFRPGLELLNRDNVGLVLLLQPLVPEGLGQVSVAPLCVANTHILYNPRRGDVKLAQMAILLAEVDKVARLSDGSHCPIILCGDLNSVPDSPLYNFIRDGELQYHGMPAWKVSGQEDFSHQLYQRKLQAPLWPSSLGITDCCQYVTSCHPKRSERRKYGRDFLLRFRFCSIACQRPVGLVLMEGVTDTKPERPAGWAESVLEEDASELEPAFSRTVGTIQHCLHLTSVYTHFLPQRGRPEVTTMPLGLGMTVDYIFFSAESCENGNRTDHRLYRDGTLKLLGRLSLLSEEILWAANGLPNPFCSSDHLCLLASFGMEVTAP
Conditions: 22Rv1 cells, 20 μM probe, 1 h, relative to DMSO. The gist of the method:
(§1)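 Cells were treated in situ with electrophilic probes, then lysed, and the lysates (2 mg/mL protein) were labeled with IA-DTB for 1 h at ambient temperature. After reduction, alkylation and trypsin digestion, labeled peptides were streptavidin-enriched, TMT-labeled and fractionated. Engagement ratios are probe vs DMSO reporter intensities, averaged across replicates.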

Assay [2] deals with T2, CNOT4_C175 (Homo sapiens, UniProt O95628).
T2 construct: endogenous in cells; host or cells: 22Rv1
T2 sequence (O95628 1-575): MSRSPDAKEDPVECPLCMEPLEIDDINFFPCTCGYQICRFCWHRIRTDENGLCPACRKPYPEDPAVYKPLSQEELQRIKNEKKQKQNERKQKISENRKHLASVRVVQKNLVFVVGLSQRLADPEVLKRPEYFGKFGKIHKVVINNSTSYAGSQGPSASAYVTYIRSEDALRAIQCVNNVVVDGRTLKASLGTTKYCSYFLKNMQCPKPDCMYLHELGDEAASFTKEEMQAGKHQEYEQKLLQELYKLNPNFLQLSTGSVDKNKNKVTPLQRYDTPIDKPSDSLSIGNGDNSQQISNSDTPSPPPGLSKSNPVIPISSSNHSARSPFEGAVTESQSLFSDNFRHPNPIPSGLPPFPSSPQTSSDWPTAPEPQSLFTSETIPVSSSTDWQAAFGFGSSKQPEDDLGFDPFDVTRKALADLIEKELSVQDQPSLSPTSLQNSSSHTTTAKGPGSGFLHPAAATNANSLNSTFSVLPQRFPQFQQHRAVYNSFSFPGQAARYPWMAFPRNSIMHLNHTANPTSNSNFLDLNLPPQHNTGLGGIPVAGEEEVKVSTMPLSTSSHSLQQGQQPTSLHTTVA
Particulars: 22Rv1 cells, 20 μM probe, 1 h, relative to DMSO. Summed up: as §1

Assay [3] addresses T3, NSUN2_C271 (Homo sapiens, UniProt Q08J23).
T3 construct: endogenous in cells; host or cells: 22Rv1
Particulars: 22Rv1 cells, relative to DMSO; for % engagement NSUN2_C271: 20 μM probe, 1 h; for % engagement NSUN2_271: 5 μM probe, 1 h (FIG. 5B). Summed up:
as §1

Assay [4] has as its target T4, TMEM50A_C13 (Homo sapiens, UniProt O95807).
T4 construct: endogenous in cells; host or cells: 22Rv1
Particulars: 22Rv1 cells, 20 μM probe, 1 h, relative to DMSO. The gist of the method: as §1

T4 sequence (O95807 whole entry): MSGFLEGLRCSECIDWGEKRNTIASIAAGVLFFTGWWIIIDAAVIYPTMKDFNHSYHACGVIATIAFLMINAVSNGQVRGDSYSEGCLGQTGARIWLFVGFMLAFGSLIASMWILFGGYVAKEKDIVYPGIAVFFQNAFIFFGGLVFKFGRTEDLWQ
T3 sequence (Q08J23 whole entry): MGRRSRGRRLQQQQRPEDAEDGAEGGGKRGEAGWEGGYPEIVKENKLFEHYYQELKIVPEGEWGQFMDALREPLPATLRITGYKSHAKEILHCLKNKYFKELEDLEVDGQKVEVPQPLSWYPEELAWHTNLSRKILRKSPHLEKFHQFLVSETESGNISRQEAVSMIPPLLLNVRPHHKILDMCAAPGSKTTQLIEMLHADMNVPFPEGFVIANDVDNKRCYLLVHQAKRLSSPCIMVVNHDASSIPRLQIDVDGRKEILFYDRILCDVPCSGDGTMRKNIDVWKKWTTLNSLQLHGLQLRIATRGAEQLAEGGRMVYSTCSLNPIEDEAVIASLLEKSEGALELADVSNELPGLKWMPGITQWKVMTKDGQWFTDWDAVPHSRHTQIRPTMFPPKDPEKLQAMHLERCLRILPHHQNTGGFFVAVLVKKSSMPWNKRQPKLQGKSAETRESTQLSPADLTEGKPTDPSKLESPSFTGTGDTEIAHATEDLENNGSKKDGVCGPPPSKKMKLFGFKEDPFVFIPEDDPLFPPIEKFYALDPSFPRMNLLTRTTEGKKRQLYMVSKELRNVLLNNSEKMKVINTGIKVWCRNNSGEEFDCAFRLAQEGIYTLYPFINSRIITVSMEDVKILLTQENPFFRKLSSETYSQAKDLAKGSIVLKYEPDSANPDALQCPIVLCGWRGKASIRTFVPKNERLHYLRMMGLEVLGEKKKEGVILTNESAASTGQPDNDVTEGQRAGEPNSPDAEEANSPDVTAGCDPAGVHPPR

Turning to `C=CC(=O)N1C[C@@H](c2ccc(Br)cc2)[C@H]1C(=O)Nc1cccc2cccnc12` [MY-1A, (2S,3R)-1-acryloyl-3-(4-bromophenyl)-N-(quinolin-8-yl)azetidine-2-carboxamide], the “% engagement ANGEL1_C27” value in assay [1] is on record as 63%. In addition, the “% engagement CNOT4_C175” value in assay [2] is 0%. In addition, the “% engagement NSUN2_C271” value in assay [3] is on record as 42.25%. Also, in assay [4], the “% engagement TMEM50A_C13” value was found to be 63.5%.

In the case of `C=CC(=O)N1C[C@H](c2ccc(Br)cc2)[C@@H]1C(=O)Nc1cccc2cccnc12` [MY-1B, (2R,3S)-1-acryloyl-3-(4-bromophenyl)-N-(quinolin-8-yl)azetidine-2-carboxamide], the “% engagement ANGEL1_C27” value in assay [1] was determined as 66.5%. In addition, in assay [2], the “% engagement CNOT4_C175” value is −15%. Moreover, in assay [3], the “% engagement NSUN2_271” value was determined as 94.50% and the “% engagement NSUN2_C271” value is reported as 88.75%. Moreover, the “% engagement TMEM50A_C13” value in assay [4] was 58%.

Regarding `C=CC(=O)N1C[C@H](c2ccc(Br)cc2)[C@H]1C(=O)Nc1cccc2cccnc12` [MY-3A, (2S,3S)-1-acryloyl-3-(4-bromophenyl)-N-(quinolin-8-yl)azetidine-2-carboxamide], in assay [1], the “% engagement ANGEL1_C27” value turned out to be 45.5%. Moreover, the “% engagement CNOT4_C175” value in assay [2] is 76.5%. In assay [3], the “% engagement NSUN2_C271” value is reported as −8.25%. Besides, in assay [4], the “% engagement TMEM50A_C13” value was 60.5%.

For `C=CC(=O)N1C[C@H](c2ccc(Br)cc2)[C@H]1C(=O)Nc1cccc2cccnc12` [MY-3B, (2S,3S)-1-acryloyl-3-(4-bromophenyl)-N-(quinolin-8-yl)azetidine-2-carboxamide], the “% engagement ANGEL1_C27” value in assay [1] was found to be 54.5%. In assay [2], the “% engagement CNOT4_C175” value is 76%. In addition, the “% engagement NSUN2_C271” value in assay [3] is −11%. Besides, the “% engagement TMEM50A_C13” value in assay [4] is 68.5%.

With `CC#CC(=O)N1C[C@H](c2ccc(Br)cc2)[C@@H]1C(=O)Nc1cccc2cccnc12` [MY-45B, (2R,3S)-3-(4-bromophenyl)-1-(but-2-ynoyl)-N-(quinolin-8-yl)azetidine-2-carboxamide], the “% engagement NSUN2_271” value in assay [3] was −13.13%.
